Data from US8710074B2, “Dihydronaphthyridinyl(organo)methanone analogs as positive allosteric mGluR5 modulators” (Vanderbilt University, priority 2011, dated 2014).

Biological target: human mGluR5 (Homo sapiens, UniProt P41594)
Test: Cell-based functional assay: Ca2+ mobilization (FDSS), potentiation of glutamate EC20 response
Settings: HEK cells transfected with human mGluR5 (H10H or H12H cell line); positive allosteric modulation in presence of glutamate EC20
Procedure: Human embryonic kidney (HEK) cells transfected with rat mGluR5 were plated in clear bottom assay plates for assay in a Functional Drug Screening System (FDSS). In the alternative assay, HEK cells transfected with human mGluR5 were plated for assay in the FDSS. In some cases the HEK cells transfected with human mGluR5 were the H10H cell line. Alternatively, the HEK cells transfected with human mGluR5 were the H12H cell line. […] The cells were loaded with a Ca^2+-sensitive fluorescent dye (e.g., Fluo-4), and the plates were washed and placed in the FDSS instrument. After establishment of a fluorescence baseline for twelve seconds, the compounds of the present invention were added to the cells, and the response in cells was measured. Alternatively, in various further aspects, after establishment of a fluorescence baseline for about three seconds, the compounds of the present invention were added to the cells, and the response in cells was measured. Five minutes later, an mGluR5 agonist (e.g., glutamate, 3,5-dihydroxyphenylglycine, or quisqualate) was added to the cells, and the response of the cells was measured. Potentiation of the agonist response of mGluR5 by the compounds in the present invention was observed as an increase in response to non-maximal concentrations of agonist (here, glutamate) in the presence of compound compared to the response to agonist in the absence of compound.
The above described assay operated in two modes. In the first mode, a range of concentrations of the present compounds were added to cells, followed by a single fixed concentration of agonist. If a compound acted as a potentiator, an EC50 value for potentiation and a maximum extent of potentiation by the compound at this concentration of agonist was determined by non-linear curve fitting. In the second mode, several fixed concentrations of the present compounds were added to various wells on a plate, followed by a range of concentrations of agonist for each concentration of present compound; the EC50 values for the agonist at each concentration of compound were determined by non-linear curve fitting. A decrease in the EC50 value of the agonist with increasing concentrations of the present compounds (a leftward shift of the agonist concentration-response curve) is an indication of the degree of mGluR5 potentiation at a given concentration of the present compound. An increase in the EC50 value of the agonist with increasing concentrations of the present compounds (a rightward shift of the agonist concentration-response curve) is an indication of the degree of mGluR5 antagonism at a given concentration of the present compound. The second mode also indicates whether the present compounds also affect the maximum response to mGluR5 to agonists.
Table 1 below lists specific compounds as well as experimentally determined mGluR5 activity determined in a cell-based assay. The examples shown in Table I are provided so that the invention might be more fully understood, and these examples are illustrative only and should not be construed as limiting the invention in any way. The mGluR5 activity was determined using the metabotropic glutamate receptor activity assays in human embryonic kidney cells as described herein, wherein the human embryonic kidney cells were transfected with human mGluR5. The compounds in Table 1 were synthesized with methods identical or analogous to those shown herein. The column labeled “Rxn” and the data thereunder indicated in Table 1 refers to the Reaction Scheme number described above. The requisite starting materials were commercially available, described in the literature, or readily synthesized by one skilled in the art of organic synthesis. Compounds shown in Table I are depicted having a basic group or acidic group and named as the free base acid. […]

Sequence of human mGluR5 (P41594 21-1180 isoform P41594-2 limits assumed): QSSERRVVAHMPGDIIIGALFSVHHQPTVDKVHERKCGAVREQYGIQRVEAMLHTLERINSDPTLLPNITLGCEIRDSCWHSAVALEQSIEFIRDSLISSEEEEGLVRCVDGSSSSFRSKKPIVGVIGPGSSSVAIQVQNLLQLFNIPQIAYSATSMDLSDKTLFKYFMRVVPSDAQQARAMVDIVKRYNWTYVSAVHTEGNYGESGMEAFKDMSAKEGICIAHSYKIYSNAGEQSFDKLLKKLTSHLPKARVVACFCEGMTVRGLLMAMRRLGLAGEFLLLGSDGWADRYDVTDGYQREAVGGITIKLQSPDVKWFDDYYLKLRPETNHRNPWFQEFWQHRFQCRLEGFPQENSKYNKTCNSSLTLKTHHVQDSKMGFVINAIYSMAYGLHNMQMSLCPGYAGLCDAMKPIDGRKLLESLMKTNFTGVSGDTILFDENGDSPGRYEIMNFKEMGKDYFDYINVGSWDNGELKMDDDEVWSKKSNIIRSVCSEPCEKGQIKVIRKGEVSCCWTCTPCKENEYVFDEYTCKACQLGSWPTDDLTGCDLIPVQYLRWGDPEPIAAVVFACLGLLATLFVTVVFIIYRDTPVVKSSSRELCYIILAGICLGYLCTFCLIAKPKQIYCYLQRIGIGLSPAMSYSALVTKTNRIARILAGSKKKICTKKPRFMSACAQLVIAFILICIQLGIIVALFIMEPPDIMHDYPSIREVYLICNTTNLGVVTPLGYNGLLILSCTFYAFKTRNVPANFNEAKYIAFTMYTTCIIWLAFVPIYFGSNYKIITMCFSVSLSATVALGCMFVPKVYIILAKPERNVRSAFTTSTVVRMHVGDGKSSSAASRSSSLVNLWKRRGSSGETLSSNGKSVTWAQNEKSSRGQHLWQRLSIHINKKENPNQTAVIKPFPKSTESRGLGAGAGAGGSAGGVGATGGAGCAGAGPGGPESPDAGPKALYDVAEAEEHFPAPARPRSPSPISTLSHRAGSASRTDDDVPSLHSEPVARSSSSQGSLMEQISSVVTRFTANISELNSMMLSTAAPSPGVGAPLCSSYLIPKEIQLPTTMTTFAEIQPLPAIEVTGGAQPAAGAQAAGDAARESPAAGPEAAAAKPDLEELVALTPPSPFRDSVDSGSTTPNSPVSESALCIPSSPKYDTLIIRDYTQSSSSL

Compound: O=C(c1ccc(F)cc1)N1CCc2ncc(COc3cccc(F)c3)cc2C1 [Compound 2, (3-((3-fluorophenoxy)methyl)-7,8-dihydro-1,6-naphthyridin-6(5H)-yl) (4-fluorophenyl)methanone]
- EC50: 690 nM

Compound: O=C(c1cccc(F)c1)N1CCc2ncc(OCc3cccc(F)c3)cc2C1 [Compound 5]
- EC50: > 30000 nM

Compound: O=C(c1ccc(F)cc1)N1CCc2ncc(COc3ccccc3)cc2C1 [Compound 1, (4-Fluorophenyl)(3-(phenoxymethyl)-7,8-dihydro-1,6-naphthyridin-6(5H)-yl)methanone]
- EC50: 380 nM

Compound: CC(C)(C)OC(=O)N1CCc2ncc(OCc3cccc(F)c3)cc2C1 [Compound 4]
- EC50: > 30000 nM

Compound: O=C(C1CC1)N1CCc2ncc(OCc3cccc(F)c3)cc2C1 [Compound 6]
- EC50: > 30000 nM

Compound: O=C(c1ccc(F)cc1)N1CCc2ncc(COc3ccc(F)cc3)cc2C1 [Compound 3, (3-((4-fluorophenoxy)methyl)-7,8-dihydro-1,6-naphthyridin-6(5H)-yl)(4-fluorophenyl)methanone]
- EC50: 910 nM
